# Biological target: hTREM2 (Homo sapiens, UniProt Q9NZC2)
# Experiment: TREM2 agonist potency by Syk phosphorylation (AlphaLisa) in HEK293T-hTREM2 cells, used for Examples 306-429
# Assay type: cell-based
# Design: expressed in transfected cells; host or cells: HEK293T (HEK293T-hTREM2 cells)
# Details: HEK293 Cells
# Outline: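 HEK293T cells expressing human TREM2 and DAP12, plated 20-24 h before, were exposed to compounds for 45 min at room temperature, then lysed. Phospho-Syk read by AlphaLisa; % activation from a standard curve and EC50 from a four-parameter log(agonist) fit.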
# Sequence of hTREM2 (Q9NZC2 19-230): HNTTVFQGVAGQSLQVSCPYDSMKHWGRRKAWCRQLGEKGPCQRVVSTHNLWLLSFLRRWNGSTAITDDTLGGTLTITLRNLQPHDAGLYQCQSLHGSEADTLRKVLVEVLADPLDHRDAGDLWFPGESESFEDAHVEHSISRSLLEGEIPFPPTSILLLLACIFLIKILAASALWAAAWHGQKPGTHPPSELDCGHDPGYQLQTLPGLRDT
# Sequence of hTREM2 (O43914 22-113 partner): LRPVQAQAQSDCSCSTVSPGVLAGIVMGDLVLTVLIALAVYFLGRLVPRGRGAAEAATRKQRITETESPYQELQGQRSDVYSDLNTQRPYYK
row,SMILES,EC50 [nM]
1,"Cc1nc2nc(N3C[C@@H](C)O[C@@H](c4cnn(C5CC5)c4)C3)nc(-c3ccc(Cl)cc3F)c2nc1C [Example 425, (2S,6R)-4-(4-(4-chloro-2-fluorophenyl)-6,7-dimethylpteridin-2-yl)-2-(1-cyclopropyl-1H-pyrazol-4-yl)-6-methylmorpholine]",≤ 50
2,"COc1cc(C2CN(c3nc4nc(C)c(C)nc4c([C@]45C[C@](C(F)(F)F)(C4)C5)n3)CCO2)ccn1 (mixture of isomers) [Example 318, 4-(6,7-dimethyl-4-(3-(trifluoromethyl)bicyclo[1.1.1]pentan-1-yl)pteridin-2-yl)-2-(2-methoxypyridin-4-yl)morpholine]",≤ 50
3,"Cc1nc2cc(N3C[C@@H](C)O[C@@H](c4cnn(C5CC5)c4)C3)nc(-c3ccc(F)cc3F)c2nc1C [Example 403, (2S,6R)-2-(1-cyclopropyl-1H-pyrazol-4-yl)-4-(5-(2,4-difluorophenyl)-2,3-dimethylpyrido[3,4-b]pyrazin-7-yl)-6-methylmorpholine]",50 to 500
4,"Cc1cc(C2CN(c3cc4nc(C)cnc4c(C45CC(C(F)(F)F)(C4)C5)n3)CCO2)ccn1 (stereo not drawn) [Example 376, 2-(2-methyl-4-pyridyl)-4-[2-methyl-5-[3-(trifluoromethyl)-1-bicyclo[1.1.1]pentanyl]pyrido[3,4-b]pyrazin-7-yl]morpholine]",500 to 3000
5,"Cc1nc2cc(N3CCO[C@H](c4cnn(C5CC5)c4)C3)nc(-c3ccc(Cl)cc3F)c2nc1C [Example 383, (2R)-4-[5-(4-chloro-2-fluoro-phenyl)-2,3-dimethyl-pyrido[3,4-b]pyrazin-7-yl]-2-(1-cyclopropylpyrazol-4-yl)morpholine]",50 to 500
6,"Cc1ccc2c(-c3ccc(F)cc3F)nc([C@H]3C[C@@H](C)O[C@@H](c4cnn(C5CC5)c4)C3)nc2n1 [Example 416, 2-((2R,4S,6R)-2-(1-cyclopropyl-1H-pyrazol-4-yl)-6-methyltetrahydro-2H-pyran-4-yl)-4-(2,4-difluorophenyl)-7-methylpyrido[2,3-d]pyrimidine]",50 to 500
7,"Cc1cc([C@H]2C[C@@H](c3cc4nc(C)cnc4c(-c4ccc(Cl)cc4F)n3)CCO2)ccn1 (racemic) [Example 310, 5-(4-chloro-2-fluorophenyl)-2-methyl-7-(2-(2-methylpyridin-4-yl)tetrahydro-2H-pyran-4-yl)pyrido[3,4-b]pyrazine]",50 to 500
8,"Cc1nc2cc([C@H]3C[C@@H](C)O[C@@H](c4cnn(C5CC5)c4)C3)nc(-c3ccc(F)cc3F)c2nc1C [Example 380, 7-[(2R,4S,6R)-2-(1-cyclopropylpyrazol-4-yl)-6-methyl-tetrahydropyran-4-yl]-5-(2,4-difluorophenyl)-2,3-dimethyl-pyrido[3,4-b]pyrazine]",≤ 50
9,"Cc1nc2cc(N3C[C@@H](c4cnn(C5CC5)c4)O[C@@H](C)C3)nc(-c3ccc(F)cc3F)c2nc1C [Example 398, (2R,6S)-2-(1-cyclopropyl-1H-pyrazol-4-yl)-4-(5-(2,4-difluorophenyl)-2,3-dimethylpyrido[3,4-b]pyrazin-7-yl)-6-methylmorpholine]",≤ 50
10,"Cc1cc(C2CC(c3cc4nc(C)c(C)cc4c(-c4ccc(Cl)cc4F)n3)CCO2)ccn1 (stereo not drawn) [Example 327, 5-(4-chloro-2-fluorophenyl)-2,3-dimethyl-7-(2-(2-methylpyridin-4-yl)tetrahydro-2H-pyran-4-yl)-1,6-naphthyridine]",≤ 50
11,"Cc1cnc2c(C34CC(C(F)(F)F)(C3)C4)nc(N3C[C@H](C)O[C@@H](c4cnn(C5CC5)c4)C3)nc2n1 (racemic) [Example 355, 2-(1-cyclopropyl-1H-pyrazol-4-yl)-6-methyl-4-(7-methyl-4-(3-(trifluoromethyl)bicyclo[1.1.1]pentan-1-yl)pteridin-2-yl)morpholine]",50 to 500
12,"Cc1cnc2c(-c3ccc(F)cc3F)nc(N3C[C@H](C)O[C@@H](c4cnn(C5CC5)c4)C3)nc2n1 (racemic) [Example 370, 2-(1-cyclopropyl-1H-pyrazol-4-yl)-4-(4-(2,4-difluorophenyl)-7-methylpteridin-2-yl)-6-methylmorpholine]",50 to 500
